18 molecules from patent US20250353848A1, “HETEROCYCLIC PAD4 INHIBITORS” (Celgene Corporation, priority 2022, published 2025) can be followed below.

A value given as a limit tells only on which side of the number the result lay.

Test [1] has as its target T1, hPAD4 enzyme (Homo sapiens, UniProt Q9UM07). Description: RFMS Assay 2 (rapid-fire mass spectrum PAD4 inhibition assay, peptide substrate). To be noted: 35 nM recombinant human PAD4, substrate TSTGGRQGSHH, room temperature for 30 minutes; read-out: human PAD4 (hPAD4) IC50, RFMS Assay 2. Format: biochemical. The method, then:
Stock compounds were dissolved and stored in 100% DMSO. Compound solutions were prepared via serial dilution at 3-fold intervals in DMSO with top compound concentration at […] in each assay. 0.25 μl of compound solution was transferred from the compound plate to the assay plate by using an acoustic dispenser. Final assay conditions: • Total reaction volume: 25 μl • Assay buffer: […] pH 7.4, 200 mM NaCl, 2 mM CaCl2, 5 mM DTT • 35 nM recombinant human PAD4 • 500 µM TSTGGRQGSHH (SEQ ID NO: 1) • 1.2% DMSO • Stop solution: 10% formic acid
Reaction mixtures were incubated at room temperature for 30 minutes. 10 μl each of the reaction mixtures was then mixed with 40 μl of 10% formic acid in a microtiter plate. The plate was frozen at −80° C. before shipping out on dry ice for RapidFire mass spectroscopy analysis.
Thawed samples were loaded onto the Rapid Fire 300 system (Agilent) wherein they were first sipped for 250 ms and then loaded onto a Agilent “C” (C18) cartridge using a mobile phase of water containing 0.09% formic acid/0.01% trifluoroacetic acid for 3000 ms desalting flowing at a rate of 1.5 ml/min. Once the samples were loaded and washed, a mobile phase of acetonitrile containing 0.09% formic acid/0.01% trifluoroacetic acid was used to elute the samples directly onto a Sciex API4000 triple quadrupole mass spectrometer for 3000 ms at a flow rate of 1.25 ml/min.
MRM transitions for substrate and product were monitored in positive ESI mode at m/z=562.3/969.7 and m/z=562.8/541.3 respectively. The dwell time for each transition was set at 100 ms, and the ESI voltage was used at 5500 with a source temperature of 650° C. Extracted ion peaks for each transition were integrated using the Rapid Fire Integrator software.

The target of test [2] is T1, hPAD4 enzyme. Description: RFMS Assay 1 (rapid-fire mass spectrum PAD4 inhibition assay, BAEE substrate). The format is biochemical. To be noted: 5 nM hPAD4 enzyme, 250 μM BAEE, 30 mins compound and enzyme preincubation at 37° C., 90 min enzyme/substrate reaction. The method, then: Compounds were solubilized in 100% DMSO to achieve a 10 mM compound concentration. Compound stock solutions were stored at RT. A series of dilutions were prepared in DMSO and mixed 8 times with 20 μL mixing volume. Final top concentration of compound in the assay is 50 μM. Final assay conditions were as follows: • Reaction volume: 26 μl • Assay buffer: 25 mM hepes, pH 7.5, 5 mM NaCl, 1 mM DTT, 0.2 mg/ml BSA, 0.01% CHAPS, 50 μM Calcium, and 5 μM TPEN • Final concentrations: 5 nM hPAD4 enzyme, 250 μM BAEE, and 0.5% DMSO • Total incubation time: 30 mins compound and enzyme preincubation at 37° C., 90 min enzyme/substrate reaction, 30 min reaction with phenyl glyoxal at 37° C. • Stop solution: 40 μl 5% TCA in ACN
0.13 μL of compound solution was added to 13 μL of 10 nM PAD4 in assay buffer. After 30 min 13 μl of 500 μM of BAEE was added in 25 mM hepes, pH 7.5, 5 mM NaCl, 1 mM DTT, 0.2 mg/ml BSA, 0.01% CHAPS, 50 µM Calcium, […] was added and the reaction incubated for 90 min at 37° C. The enzymatic reaction was quenched by addition of 15 μl of 6.1N TCA, 100% Final Concentration is 20%, 35 μl of 8.5 mM phenyl glyoxal (final concentration 4 mM) is then added and the reaction is incubated for 30 min at 37° C.
After 30 minutes the plates are spun down to remove all precipitate. The enzyme reaction was quenched with an equal volume of methanol containing internal standard (modified citrulline). Samples were loaded onto the Rapid Fire RF300 system (Agilent) wherein they were first sipped for 1000 ms and then directly loaded to a C18 separations cartridge using a mixture of acetonitrile containing 0.01% formic acid for 3000 ms desalting. The flow rate of the mobile phase was 1.5 ml/min. Once the samples were eluted from the cartridge, a mobile phase of acetonitrile containing 0.01% formic acid was used to move the samples into the mass spectrometer for 4000 ms at a flow rate of 1.25 ml/min/Sciex AP15500 triple quadrupole mass spectrometer (Applied Biosystems) equipped with ESI was used to analyze the peptidyl citrulline and internal standard ions.
MRM transition of product and internal standard were monitored at m/z 424.5 to 350.4 and m/z 293 to 247 respectively. The dwell time for each transition was set at 200 ms, and the ESI voltage was used at 5500 with a source temperature of 400° C. Extracted ion peaks for each transition were integrated using the Rapid Fire Integrator software. Peak area of analyte was normalized with internal standard.).

T1 sequence (Q9UM07 whole entry): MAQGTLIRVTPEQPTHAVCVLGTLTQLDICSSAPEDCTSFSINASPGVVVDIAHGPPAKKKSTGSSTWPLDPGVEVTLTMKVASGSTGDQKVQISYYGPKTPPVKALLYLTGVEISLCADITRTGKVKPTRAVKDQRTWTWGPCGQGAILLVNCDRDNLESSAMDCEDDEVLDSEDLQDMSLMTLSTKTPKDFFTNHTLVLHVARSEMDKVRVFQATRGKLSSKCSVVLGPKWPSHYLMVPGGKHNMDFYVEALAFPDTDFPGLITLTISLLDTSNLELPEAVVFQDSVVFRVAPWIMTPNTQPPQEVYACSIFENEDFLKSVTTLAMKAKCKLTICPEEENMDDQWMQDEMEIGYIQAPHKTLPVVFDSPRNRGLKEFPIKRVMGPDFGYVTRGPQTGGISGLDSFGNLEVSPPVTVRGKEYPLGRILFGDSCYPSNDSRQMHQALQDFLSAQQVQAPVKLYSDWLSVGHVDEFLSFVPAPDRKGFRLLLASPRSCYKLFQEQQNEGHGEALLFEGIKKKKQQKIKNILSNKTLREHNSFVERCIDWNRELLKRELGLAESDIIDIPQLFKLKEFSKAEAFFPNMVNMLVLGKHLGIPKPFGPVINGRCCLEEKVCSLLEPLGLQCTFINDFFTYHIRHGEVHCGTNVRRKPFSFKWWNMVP

As for `COc1cccc2cc(-c3nc4cc5c(nc4n3C)CCN(C[C@H](N)CF)C5=O)n(Cc3oncc3C)c12` [Example 9, (S)-7-(2-amino-3-fluoropropyl)-2-(7-methoxy-1-((4-methylisoxazol-5-yl)methyl)-1H-indol-2-yl)-3-methyl-3,5,6,7-tetrahydro-8H-imidazo[4,5-b][1,6]naphthyridin-8-one], the IC50 (usually the midpoint of a concentration-inhibition curve) in test [1] lay within 0.101 to 0.5 µM.
`Cn1c(-c2cc3cccc(OC[C@H]4CCC(=O)NC4)c3n2CC2CC2)nc2cc3c(nc21)CCN(C[C@H](N)CF)C3=O` [Example 36, 7-((S)-2-amino-3-fluoropropyl)-2-(1-(cyclopropylmethyl)-7-(((S)-6-oxopiperidin-3-yl)methoxy)-1H-indol-2-yl)-3-methyl-3,5,6,7-tetrahydro-8H-imidazo[4,5-b][1,6]naphthyridin-8-one]: in test [1], the IC50 was greater than 1 µM.
As for `Cn1c(-c2cc3cccc(OC[C@@H]4CCC(=O)NC4)c3n2CC2CC2)nc2cc3c(nc21)CCN(C[C@H](N)CF)C3=O` [Example 37, 7-((S)-2-amino-3-fluoropropyl)-2-(1-(cyclopropylmethyl)-7-(((R)-6-oxopiperidin-3-yl)methoxy)-1H-indol-2-yl)-3-methyl-3,5,6,7-tetrahydro-8H-imidazo[4,5-b][1,6]naphthyridin-8-one], the IC50 in test [1] was in the range of 0.501 to 1 µM.
On the same count and under the same terms, for `Cc1cccc2cc(-c3nc4cc5c(nc4n3C)CCN(C[C@H](N)CF)C5=O)n(Cc3ccno3)c12` [Example 17, (S)-7-(2-amino-3-fluoropropyl)-2-(1-(isoxazol-5-ylmethyl)-7-methyl-1H-indol-2-yl)-3-methyl-3,5,6,7-tetrahydro-8H-imidazo[4,5-b][1,6]naphthyridin-8-one] the value was 0.501 to 1 µM; for `Cn1c(-c2cc3cccc(OC[C@H]4CNC(=O)C4)c3n2CC2CC2)nc2cc3c(nc21)CCN(C[C@H](N)CF)C3=O` [Example 60, 7-((S)-2-amino-3-fluoropropyl)-2-(1-(cyclopropylmethyl)-7-(((R)-5-oxopyrrolidin-3-yl)methoxy)-1H-indol-2-yl)-3-methyl-3,5,6,7-tetrahydro-8H-imidazo[4,5-b][1,6]naphthyridin-8-one], 0.101 to 0.5 µM.
The same measure, in the same setting: for `CC(Cc1cnco1)Oc1cc(F)cc2cc(-c3nc4cc5c(nc4n3C)CCN(C[C@H](N)CF)C5=O)n(CC3CC3)c12` (single isomer, unassigned) [Example 64] the value was 0.101 to 0.5 µM.
Still for that read-out and setting: for `COc1cccc2cc(-c3nc4cc5c(nc4n3C)CCN(C[C@H](N)CF)C5=O)n(Cc3nc(C)co3)c12` [Example 13, (S)-7-(2-amino-3-fluoropropyl)-2-(7-methoxy-1-((4-methyloxazol-2-yl)methyl)-1H-indol-2-yl)-3-methyl-3,5,6,7-tetrahydro-8H-imidazo[4,5-b][1,6]naphthyridin-8-one] the value was 0.501 to 1 µM.
In test [2], `COCCn1c(-c2nc3cc4c(nc3n2C)CCN(C[C@H](N)CF)C4=O)cc2cccc(OC(F)Cn3ccnc3)c21` (single isomer, unassigned) [Example 77b] displayed an IC50 of 0.011 to 0.1 µM.
On the same count and under the same terms, the same measure for `Cc1nnc(CCOc2cccc3cc(-c4nc5cc6c(nc5n4C)CCN(C[C@H](N)CF)C6=O)n(CC4CC4)c23)s1` [Example 55, (S)-7-(2-amino-3-fluoropropyl)-2-(1-(cyclopropylmethyl)-7-(2-(5-methyl-1,3,4-thiadiazol-2-yl)ethoxy)-1H-indol-2-yl)-3-methyl-3,5,6,7-tetrahydro-8H-imidazo[4,5-b][1,6]naphthyridin-8-one]: 0.101 to 0.5 µM; for `Cn1c(-c2cc3cccc(OC(F)Cn4cnc(F)c4)c3n2CC2CC2)nc2cc3c(nc21)CCN(C[C@H](N)CF)C3=O` (single isomer, unassigned) [Example 73a]: no more than 0.01 µM.
Take `Cn1c(-c2cc3cccc(OCCn4cnc(Cl)n4)c3n2CC2CC2)nc2cc3c(nc21)CCN(C[C@H](N)CF)C3=O` [Example 92, (S)-7-(2-amino-3-fluoropropyl)-2-(7-(2-(3-chloro-1H-1,2,4-triazol-1-yl)ethoxy)-1-(cyclopropylmethyl)-1H-indol-2-yl)-3-methyl-3,5,6,7-tetrahydro-8H-imidazo[4,5-b][1,6]naphthyridin-8-one]: the IC50 in test [2] was 0.011 to 0.1 µM.
Same read-out and setting: the same measure for `Cn1c(-c2cc3cccc(OCC(O)c4cnco4)c3n2CC2CC2)nc2cc3c(nc21)CCN(C[C@H](N)CF)C3=O` (single isomer, unassigned) [Example 61a]: 0.101 to 0.5 µM.
On the same count and under the same terms, for `Cn1c(-c2cc3cccc(CCCn4cnc(F)c4)c3n2CC2CC2)nc2cc3c(nc21)CCN(C[C@H](N)CF)C3=O` [Example 99, (S)-7-(2-amino-3-fluoropropyl)-2-(1-(cyclopropylmethyl)-7-(3-(4-fluoro-1H-imidazol-1-yl)propyl)-1H-indol-2-yl)-3-methyl-3,5,6,7-tetrahydro-8H-imidazo[4,5-b][1,6]naphthyridin-8-one] the value was 0.011 to 0.1 µM; for `C[C@@H](COc1cccc2cc(-c3nc4cc5c(nc4n3C)CCN(C[C@H](N)CF)C5=O)n(CC3CC3)c12)n1ccnc1` [Example 80, 2-(7-((S)-2-(1H-imidazol-1-yl)propoxy)-1-(cyclopropylmethyl)-1H-indol-2-yl)-7-((S)-2-amino-3-fluoropropyl)-3-methyl-3,5,6,7-tetrahydro-8H-imidazo[4,5-b][1,6]naphthyridin-8-one], 0.011 to 0.1 µM; for `Cn1c(-c2cc3cccc(OCCn4ccnc4C#N)c3n2CC2CC2)nc2cc3c(nc21)CCN(C[C@H](N)CF)C3=O` [Example 89, (S)-1-(2-((2-(7-(2-amino-3-fluoropropyl)-3-methyl-8-oxo-5,6,7,8-tetrahydro-3H-imidazo[4,5-b][1,6]naphthyridin-2-yl)-1-(cyclopropylmethyl)-1H-indol-7-yl)oxy)ethyl)-1H-imidazole-2-carbonitrile], 0.101 to 0.5 µM.
On the same count and under the same terms, for `C[C@@H](COc1cccc2cc(-c3nc4cc5c(nc4n3C)CCN(C[C@H](N)CF)C5=O)n(CC3CC3)c12)n1cnc(C#N)c1` [Example 87, 1-((S)-1-((2-(7-((S)-2-amino-3-fluoropropyl)-3-methyl-8-oxo-5,6,7,8-tetrahydro-3H-imidazo[4,5-b][1,6]naphthyridin-2-yl)-1-(cyclopropylmethyl)-1H-indol-7-yl)oxy)propan-2-yl)-1H-imidazole-4-carbonitrile] the value was 0.011 to 0.1 µM; for `COC(=O)N1CC[C@@H](Oc2cccc3cc(-c4nc5cc6c(nc5n4C)CCN(C[C@H](N)CF)C6=O)n(CC4CC4)c23)C1` [Example 40, methyl (R)-3-((2-(7-((S)-2-amino-3-fluoropropyl)-3-methyl-8-oxo-5,6,7,8-tetrahydro-3H-imidazo[4,5-b][1,6]naphthyridin-2-yl)-1-(cyclopropylmethyl)-1H-indol-7-yl)oxy)pyrrolidine-1-carboxylate], 0.011 to 0.1 µM.
Molecule `COc1cccc2cc(-c3nc4cc5c(nc4n3C)CCN(C[C@H](N)CF)C5=O)n(CCOC(F)(F)F)c12` [Example 5, (S)-7-(2-amino-3-fluoropropyl)-2-(7-methoxy-1-(2-(trifluoromethoxy)ethyl)-1H-indol-2-yl)-3-methyl-3,5,6,7-tetrahydro-8H-imidazo[4,5-b][1,6]naphthyridin-8-one] gave an IC50 in test [2] of 0.101 to 0.5 µM.
